Data from patent publication US8269017B2, “Compounds for the treatment of proliferative disorders” (Synta Pharmaceuticals Corporation, priority 2005, dated 2012).
“Also recorded” adds a separate entry of the source. Where two headings read alike, the source gives them in different places.

What was measured:
[1] = tested on: MDA-435; assay: Cytotoxicity in MDA-435 tumor cells (Cell Counting Kit 8); type: cell-based; conditions: Homo sapiens, MDA435, MDA-435 cells, 70 h
Protocol: Tumor cell line, MDA-435, was seeded in 96-well plates at 1×10^4 cells/well in DMEM medium and treated with compounds at different concentrations. Taxol was used as a positive control. The cells were incubated at 37° C. for 70 h. Viability of the cells was measured with Cell Counting Kit 8 (Dojindo, Cat #CK04). IC50 of the compounds was determined by Five-Parameter Logistic equation.

[2] = tested on: SB cells; assay: Induction of apoptosis in SB cells (Annexin V/PI, FACS); type: cell-based; conditions: 24 h; for % Apoptotic Cells Gated: 1 μM; for cytotoxicity at 1 µM: read-out: % Dead Cells Gated; for viability at 1 µM: read-out: % Live Cells Gated
Protocol: SB cells (2×10^5 cells/mL) were cultured in 12-well plates (2 mL/well) and were left untreated (negative control), treated with Taxol (positive control), or treated with a compound of the invention for 24 h at 37° C. After treatment, the cells were washed one time with 1×PBS and stained with FITC labeled anti-Annexin V and PI (10 μg/ml) for 15 min at room temperature. The cells were analyzed by FACSCalibur (Becton Dickinson).

[3] = tested on: MDA-435 cells; assay: Cell cycle analysis in MDA-435 cells; type: cell-based, human; conditions: 20 h, Taxol 30 nM, Comp. 1 100 nM, Comp. 2 500 nM, Comp. 3 10 nM, Comp. 6 800 mM (so in the source), Comp. 46 50 nM
Protocol: MDA-435 cells were cultured in 6-well plates at 1×10^6 cells/well and were untreated (negative control), treated with Taxol (positive control), or treated with a compound of the invention at 37° C. for 20 h. The cells were detached with 1× trypsin and washed one time with PBS. Cycle TEST PLUS kit (BD PharMingen, Cat #340242) was used to stain the cells. Cell cycle was analyzed with FACScomp program (BS PharMingen).

[4] = tested on: α-tubulin-YFP labeled microtubules in MCF7-α-tubulin-YFP cells; assay: Inhibition of tubulin polymerization in α-tubulin-YFP expressing cells (fluorescence imaging); type: cell-based
Protocol: Living cells were examined using a fluorescent microscope for α-tubulin-YFP expression.
CHO-α-tubulin-YFP or MCF7-α-tubulin-YFP cells were cultured in 2-well chambered cover-slips (Labtek (Campbell, Calif.) or Fisher Scientific) for 24 hours before treatment with a compound of the invention. For comparison of the effects of treatment on α-tubulin-YFP labeled microtubules with the compounds of the invention, CHO-α-tubulin-YFP or MCF7-α-tubulin-YFP cells were treated with the a compound of the invention, Taxol or equivalent concentrations of DMSO-containing media for various time periods before imaging. Tubulin-YFP fluorescence in living cells or fixed cells was captured using a standard filter for FITC and objectives of 20× or 60× magnification on a Nikon TE300 microscope with a Leica DC50 color digital camera (Leica, Bannockburn, Ill.) or a CoolSnap HQ monochrome CCD camera (Photonetrics, Tucson, Ariz.). The Leica DC50 and CoolSnapHQ cameras were controlled with Leica DC50 software and MetaVue/MetaMorph software, respectively (Universal Imaging Corp, Downingtown, Pa.).

[5] = tested on: HL-60 (T-cell leukemia); assay: In vitro cytotoxicity, MTS assay, HL-60; type: cell-based, human; conditions: 72 hours
Protocol: (§1) The in vitro cytotoxicity of the compounds of the invention was determined in the following human cell lines: HL-60 (T-cell leukemia), MDA-435 and MCF-7 (human breast carcinoma), NCI-H460 and H29 (colon carcinoma), DU145 (prostate carcinoma), and MES-SA and MES-SA/DX5 (uterine sarcoma). MES-SA is a model of uterine sarcoma, and the cell are sensitive to a number of chemotherapeutic agents including doxorubicin, dactinomycin, mitomycin C, taxol and bleomycin, but resistant to vinblastine and cisplatin. MES-SA/Dx5 was established in the presence of increasing concentrations of doxorubicin. […] All cells were purchased from ATCC.
(§2) The cell lines were maintained in RPMI1640 (GIBCO) supplemented with 10% FCS, 100 units/mL penicillin, 100 ug/ml streptomycin, and 2 mM L-glutamine. Cells were split every third day and diluted to a concentration of 2×10^5 cells/mL one day before the experiment was performed. All experiments were performed on exponentially growing cell cultures. Cell densities were 2.5×10^4 cells/mL in all experiments.
(§3) Compounds of the invention were prepared by dissolving the compound at a concentration of 10 mM in 100% DMSO. Final concentrations 10, 1, 0.1, 0.01 and 0.001 μM were obtained by diluting the stock solution directly into the tissue culture medium.

[6] = tested on: MES-SA (uterine sarcoma); assay: In vitro cytotoxicity, MTS assay, MES-SA; type: cell-based, human; conditions: MES-SA (Uterine Carcinoma), 72 hours
Protocol: as §1, §2, §3

[7] = tested on: human tumor cell line MDA-MB-435S; assay: Nude mouse xenograft, MDA-MB-435S (Example 10); type: in vivo
Protocol: (§4) Seven to eight week old, female Crl:CD-1-nuBR (nude) mice were obtained from Charles River Laboratories (Wilmington, Mass., USA). Animals were housed 4-5/cage in micro-isolators, with a 12 hr/12 hr light/dark cycle, acclimated for at least 1 week prior to use and fed normal laboratory chow ad libitum. Studies were conducted on animals between 8 and 10 weeks of age at implantation. To implant MDA-MB-4355 tumor cells into nude mice, the cells were trypsinized as above, washed in PBS and resusupended at a concentration of 50×10(6) cells/ml in PBS. Using a 27 gauge needle and 1 cc syringe, 0.1 ml of the cell suspension was injected into the corpus adiposum of nude mice. The corpus adiposum is a fat body located in the ventral abdominal vicera in the right quadrant of the abdomen at the juncture of the os coxae (pelvic bone) and the os femoris (femur).
Tumors were then permitted to develop in vivo until the majority reached an average of 100-200 mm^3 in tumor volume, which typically required 2-3 weeks following implantation. […] Tumor volumes (V) were calculated by caliper measurement of the width (W), length (L) and thickness (T) of tumors using the following formula: V=0.5236×(L×W×T). Animals were randomized into treatment groups so that the median tumor volumes of each group were similar at the start of dosing. % T/C values, as a measure of efficacy, were determined as follows: • (i) If ΔT>0: % T/C=[…] • (ii) If ΔT<0: % T/C=(ΔT/T0)×100 • (iii) ΔT=Change in median tumor volume between start of dosing and the end of study. • (iv) ΔC=Change in median tumor volume between start of dosing and the end of study. • (v) T0=Median tumor volume at start of dosing.
(§5) Compounds were formulated in either D5W (Compounds 169 and 174) or DRD (Compound 178). For formulations in D5W, solutions of test articles were prepared by dissolving the appropriate amounts of each compound in 5% dextrose in water (Abbott Laboratories, North Chicago, Ill., USA) by sonication in an ultrasonic water bath. For formulations in DRD, stock solutions of test articles were prepared by dissolving the appropriate amounts of each compound in dimethyl sulfoxide (DMSO) by sonication in an ultrasonic water bath. Stock solutions were prepared weekly, stored at −20° C. and diluted fresh each day for dosing. A solution of 20% Cremophore RH40 (polyoxyl 40 hydrogenated castor oil; BASF Corp., Aktiengesellschaft, Ludwigshafen, Germany) in 5% dextrose in water (Abbott Laboratories, North Chicago, Ill., USA) was also prepared by first heating 100% Cremophore RH40 at 50-60° C. until liquefied and clear, diluting 1:5 with 100% D5W, reheating again until clear and then mixing well. This solution was stored at room temperature for up to 3 months prior to use. […]

[8] = Body weight change in MDA-MB-435S xenograft study (Example 10); type: in vivo, nude mouse; conditions: i.v.
Protocol: as §4
as §5, with “use. To prepare DRD formulations for daily dosing, DMSO stock solutions were diluted 1:10 with 20% Cremophore RH40.” for “use.”

[9] = tested on: MDA-435 (human breast carcinoma); assay: In vitro cytotoxicity, MTS assay, MDA-435; type: cell-based; conditions: MDA435, MDA-435 (Breast Cancer), 72 hours
Protocol: as §1, §2, §3

[10] = tested on: MCF-7 (human breast carcinoma); assay: In vitro cytotoxicity, MTS assay, MCF-7; type: cell-based; conditions: MCF7, MCF-7 (Breast Cancer), 72 hours
Protocol: as §1, §2, §3

[11] = tested on: NCI-H460 (colon carcinoma); assay: In vitro cytotoxicity, MTS assay, NCI-H460; type: cell-based; conditions: Homo sapiens, 72 hours
Protocol: as §1, §2, §3

[12] = tested on: MES-SA/DX5 (uterine sarcoma, MDR-1); assay: cells; type: cell-based; conditions: Homo sapiens, MES/DX5 (MDR-1), MTS assay
Protocol: as §1, §2, §3

[13] = tested on: DU145 (prostate carcinoma); assay: In vitro cytotoxicity, MTS assay, DU145; type: cell-based; conditions: Homo sapiens, DU-145, 72 hours
Protocol: as §1, §2, §3

[14] = tested on: H29 (colon carcinoma); assay: In vitro cytotoxicity, MTS assay, H29; type: cell-based; conditions: Homo sapiens, 72 hours
Protocol: as §1, §2, §3

[15] = MCF7-α-tubulin-YFP cells treated with 1.0 μM compound
[16] = Homo sapiens, HL-60, HL60 (Leukemia), read-out: IC50
[17] = Compound 169 at 2 mg/kg, Compound 174 at 4.55 mg/kg body weight, i.v., 1 time/week, 3 doses

Row | SMILES | IC50 [1] [nM] | % Apoptotic Cells Gated [2] [%] | cytotoxicity at 1 µM [2] [%] | viability at 1 µM [2] [%] | Apoptotic Population (%) [3] [%] | G0/G1 Phase (%) [3] [%] | G2/M Phase (%) [3] [%] | S Phase (%) [3] [%] | IC50 [5, 16] [nM] | IC50 [9] [nM] | IC50 [10] [nM] | IC50 [11] [nM] | IC50 ([6]; Homo sapiens, read-out: IC50) [nM] | IC50 [13] [nM] | IC50 [14] [nM] | IC50 ([12]; MDR1, 72 h) [nM] | other results
1 | COc1cc(-c2oncc2-c2ccc(Br)cc2)cc(OC)c1OC [Compound 1, 4-(4-Bromo-phenyl)-5-(3,4,5-trimethoxy-phenyl)-isoxazole] | 132 | 18.36 | 14.4 | 60.1 | 11.35 | 19.15 | 32.60 | 37.60 | – | – | – | – | – | – | – | – | Tubulin-YFP signal pattern in live cells [4, 15]: cytoplasmic pattern
2 | COc1ccc(-c2cnoc2-c2cc(OC)c(OC)c(OC)c2)cc1OP(=O)(O)O [Compound 178, Sodium 2-methoxy-5-[5-(3,4,5-trimethoxy-phenyl)-isoxazol-4-yl)-phenyl phosphate] | – | – | – | – | – | – | – | – | – | – | – | – | – | – | – | – | IC50 ([5]; HL60 (Leukemia), phosphate): 22 nM; IC50 ([6]; phosphate): 4 nM; efficacy on in vivo growth of MDA-MB-435S tumors ([7]; i.v. 3 times per week, dose escalation: 3 doses at 25, 3 at 37.5, 3 at 50 mg/kg, efficacy at 37.5 and 50 mg/kg, phosphate): began to show moderate efficacy; also recorded: began to show modest efficacy; overt toxicity (effect on body weights) ([8]; Compound 178 at 25, 37.5 or 50 mg/kg body weight, 3 times per week, phosphate): not overtly toxic; also recorded: not associated with overt toxicity
3 | CC(=O)O[C@H]1C(=O)[C@@]2(C)[C@H]([C@H](OC(=O)c3ccccc3)[C@]3(O)C[C@H](OC(=O)[C@H](O)[C@@H](NC(=O)c4ccccc4)c4ccccc4)C(C)=C1C3(C)C)[C@]1(OC(C)=O)CO[C@@H]1C[C@@H]2O [Taxol, reference compound] | 16 | 17.84 | 12.5 | 63.7 | 16.17 | 19.12 | 32.32 | 32.93 | 5 | 2 | 5 | 5 | 5 | 5 | 10 | – | IC50 ([12]; MDR1, 72 hours, read-out: IC50): 10000 nM; Tubulin-YFP signal pattern in live cells ([4]; MCF7-α-tubulin-YFP cells treated with 0.1 μM Taxol): microtubule bundle formation
4 | COc1ccc(-c2cnoc2-c2cc(OC)c(OC)c(OC)c2)cc1NC(=O)CN.Cl [Compound 169, 2-Amino-N-{2-methoxy-5-[5-(3,4,5-trimethoxy-phenyl)-isoxazol-4-yl]-phenyl}-acetamide] | – | – | – | – | – | – | – | – | 7 | – | – | – | 3 | – | – | 3 | % T/C [7, 17]: 38%; in vivo growth rate of MDA-MB-435S tumors [7, 17]: substantially inhibited tumor growth; also recorded: substantially decreased the growth rate; overt toxicity (effect on body weights) ([8]; Compound 169 at 2 and 1 mg/kg, Compound 174 at 4.55 and 2.28 mg/kg body weight, 1 time per week, 3 doses): not overtly toxic; also recorded: not associated with overt toxicity
5 | CCc1cc(-c2oncc2-c2ccc(Br)cc2)c(O)cc1OC [Compound 6, 4-(4-Bromo-phenyl)-5-(2-hydroxy-4-methoxy-5-ethyl-phenyl)-isoxazole] | 461 | 14.17 | 17.3 | 59.2 | 10.59 | 18.45 | 35.96 | 35.55 | – | – | – | – | – | – | – | – | Tubulin-YFP signal pattern in live cells [4, 15]: cytoplasmic pattern
6 | COc1cc(-c2oncc2-c2ccc3c(c2)OCCO3)cc(OC)c1OC [Compound 46, 4-(2,3-Dihydro-benzo[1,4]dioxin-6-yl)-5-(3,4,5-trimethoxy-phenyl)-isoxazole] | 21 | 19.04 | 17.3 | 51 | 9.88 | 19.67 | 28.18 | 37.98 | 50 | 50 | 50 | 50 | 50 | 100 | 50 | 50 | –
7 | CCc1cc(-c2oncc2-c2ccc(I)cc2)c(O)cc1OC [Compound 4, 4-(4-Iodo-phenyl)-5-(2-hydroxy-4-methoxy-5-ethyl-phenyl)-isoxazole] | 232 | 19.05 | 20.1 | 52.8 | – | – | – | – | 50 | 50 | 50 | 50 | 50 | 50 | 50 | 50 | –
